We go through 26 compounds from patent US8906904B2, “Alkoxy pyrazoles as soluble guanylate cyclase activators” (Boehringer Ingelheim International GmbH, priority 2012, dated 2014).

Data set [1] in a line: human liver microsome (HLM) metabolic stability assay. The data set is classed as in vitro ADME. The following applies: human liver microsomes; % hepatic blood flow calculated from t1/2. As for the experimental part: The 5 time point, high-throughput human liver microsome (HLM) metabolic stability assay is designed to determine in vitro compound metabolism. Compounds are incubated with HLMs at a concentration of 1 uM, at 37° C., for a total of 60 min. The percent of compound remaining at 5, 15, 30, and 60 min is used to calculate the t½ (min), CLint (mL/min/kg), CLh (mL/min/kg), and % Qh. The assay is based on a 96-well format and can accommodate up to 92 compounds per plate (n=1).
Using the 96-well multi-channel head, the Biomek FX, equipped with a Peltier heating block/shaker, is programmed to accomplish the following steps: • 1. Pipette 175 uL of 1.15 mg/mL microsomes into each of the 96 conical inserts (Analytical Sales and Products, catalog number 96PL05) that fit into the plate of the Peltier heating block/shaker (the incubation plate) • 2. Add 5 uL of compounds from the assay plate to the microsomes and shake the mixture at 600 rpm at 42.1° C. for 10 min (a setting of 42.1° C. on the Peltier is required for the samples to incubate at 37° C.) • 3. After 10 min, prompt the user to add the NADPH plate to the deck and add 20 uL from the NADPH plate to the incubation plate to start the reaction • 4. Add 215 uL of 100%, cold acetonitrile containing an internal standard(s) to a 0 minute, 5 minute, 15 minute, 30 minute, and 60 minute “quench” plate • 5. At 0 min, 5 min, 15 min, 30 min, and 60 min into the incubation, aspirate 12 uL from the incubation mixture and add it to the quench solution to stop the reaction • 6. Add 185 uL HPLC grade water to each well of the 0, 5, 15, 30 and 60 minute quench plates to dilute compounds to the appropriate concentration for the mass spectrometer
After all time points are collected, the quench plates are sealed with 96-well pierceable plate mats or heat sealing foil and centrifuged at 3000 rpm for 15 min to pellet the microsomes.
The plates are analyzed using LC/MS/MS with electron spray ionization (ESI) and the previously determined MRM transitions. The LC method includes the following parameters:
Using an Excel template in Activitybase, the peak areas corresponding to 5, 15, 30 and 60 min are compared to the peak area at 0 min to calculate the percent of remaining compound using the following equation: Percent compound remaining=(AUC at Time t min/AUC at Time 0 min)×100 where t=0, 5, 15, 30 or 60 min.
Time (min) is plotted against the natural logarithm (Ln) of the percent compound remaining to determine the slope. The slope is used to calculate t½ (min) using the equation, t½=0.693/slope.
Preferred compounds have % Qh values of less than 24.

Data set [2] concerns the target T1, human soluble guanylate cyclase alpha 1 and beta 1 subunits (sGC) (Homo sapiens, UniProt Q02108+Q02153).
T1 construct: expressed in transfected cells; host or cells: Chinese hamster ovary (CHO) cells, stably transfected
T1 sequence (Q02108 1-690): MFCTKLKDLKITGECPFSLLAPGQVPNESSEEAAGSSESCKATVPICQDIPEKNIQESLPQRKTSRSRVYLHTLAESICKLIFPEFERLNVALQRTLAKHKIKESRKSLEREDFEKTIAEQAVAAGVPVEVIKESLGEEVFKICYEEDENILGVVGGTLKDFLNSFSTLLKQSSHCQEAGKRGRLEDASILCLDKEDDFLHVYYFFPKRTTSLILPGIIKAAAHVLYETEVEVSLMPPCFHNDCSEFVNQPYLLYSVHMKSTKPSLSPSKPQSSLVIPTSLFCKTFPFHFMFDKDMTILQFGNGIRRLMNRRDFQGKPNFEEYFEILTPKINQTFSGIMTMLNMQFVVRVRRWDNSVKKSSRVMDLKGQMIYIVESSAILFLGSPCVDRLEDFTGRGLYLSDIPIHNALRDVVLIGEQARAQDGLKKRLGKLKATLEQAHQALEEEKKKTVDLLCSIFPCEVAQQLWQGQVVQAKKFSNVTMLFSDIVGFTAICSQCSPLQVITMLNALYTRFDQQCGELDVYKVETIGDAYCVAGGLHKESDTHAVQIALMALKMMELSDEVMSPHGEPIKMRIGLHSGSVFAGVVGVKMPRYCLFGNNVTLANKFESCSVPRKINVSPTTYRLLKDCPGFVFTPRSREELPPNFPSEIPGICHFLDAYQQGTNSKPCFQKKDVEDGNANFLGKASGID
T1 sequence (Q02153 1-619): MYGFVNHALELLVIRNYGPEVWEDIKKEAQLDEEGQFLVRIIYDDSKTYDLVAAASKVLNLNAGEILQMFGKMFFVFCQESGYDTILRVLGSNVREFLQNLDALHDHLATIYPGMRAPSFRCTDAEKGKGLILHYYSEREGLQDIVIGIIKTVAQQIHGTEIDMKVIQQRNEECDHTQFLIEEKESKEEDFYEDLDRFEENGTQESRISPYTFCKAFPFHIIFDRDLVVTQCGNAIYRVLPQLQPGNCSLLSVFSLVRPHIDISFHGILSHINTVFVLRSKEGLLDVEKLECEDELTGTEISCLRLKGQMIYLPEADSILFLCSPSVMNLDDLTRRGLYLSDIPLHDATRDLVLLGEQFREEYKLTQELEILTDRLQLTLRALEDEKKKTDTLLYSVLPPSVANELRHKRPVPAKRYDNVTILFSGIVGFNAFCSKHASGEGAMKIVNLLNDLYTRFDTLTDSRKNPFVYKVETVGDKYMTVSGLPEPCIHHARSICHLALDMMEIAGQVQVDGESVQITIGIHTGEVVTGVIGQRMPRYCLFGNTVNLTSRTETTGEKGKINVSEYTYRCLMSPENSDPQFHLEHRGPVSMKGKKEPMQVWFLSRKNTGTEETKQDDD
In words: sGC cellular activator assay (cGMP, HTRF). The data set is classed as cell-based. The following applies: CHO cells stably expressing human sGC alpha 1/beta 1, preincubated with 40 microM ODQ; cGMP readout; assay run with and without 50% human serum, Table 2 does not say which. As for the experimental part: The sGC cellular activator assay is performed in the presence and absence of 50% human serum (HS) using Chinese hamster ovary cells that have been stably transfected to express the human soluble guanylate cyclase alpha 1 and beta 1 subunits (sGC). Cells are preincubated with 40 microM 1H-[1,2,4]oxadiazolo[4,3-a]quinoxalin-1-one (ODQ), an sGC inhibitor, for one h in buffer containing 0.1% bovine serum albumin and 3-isobutyl-1-methylxanthine (IBMX). Concentration response curves are prepared for test compounds in DMSO. An intermediate dilution of the compounds is performed in either buffer containing IBMX or type AB HS containing IBMX. Diluted compounds are added to cells and they are incubated at room temperature for thirty min. cGMP is measured using a CisBio homogeneous time resolved fluorescence kit and the EC50 is calculated for each compound.
Representative compounds of the present invention were tested for activity the above assay. Preferred compounds have an EC50 of <1,000 nM in the above assay and more preferred compounds have an EC50<200 nM.

Broadly, the EC50 is the concentration giving half of the maximal effect. A low value points to an effect from little substance. With `COc1c(C(=O)O)cnn1-c1cccc(-c2cccc(C)c2OCc2ccc3c(c2C)CCN(S(C)(=O)=O)C3)n1` [Compound 160], in data set [1], the “HLM (% Qh)” value is reported as 44 % Qh. The compound further had an EC50 in data set [2] of 0.11 µM.
Take `CCOc1c(C(=O)O)cnn1-c1cccc(-c2cccc(C)c2OCc2cc(C)c3c(c2)CCN(C2COC2)C3)n1` [Compound 174]: in data set [1], the “HLM (% Qh)” value is under 24 % Qh. The same compound came in with an EC50 in data set [2] of 0.014 µM.
On to `Cc1cc(COc2c(C)cccc2-c2cccc(-n3ncc(C(=O)O)c3OC(C)C)n2)cc2c1CN(C1CCOCC1)CC2` [Compound 161], for which the “HLM (% Qh)” value in data set [1] is listed as under 24 % Qh. Further, in data set [2], the EC50 amounted to 0.014 µM.
In the same order, the values of `COc1c(C(=O)O)cnn1-c1cccc(-c2cccc(C)c2OCc2ccc3c(c2C)CCN([C@@H]2CCOC2)C3)n1` [Compound 106] are under 24 % Qh and 0.027 µM.
As for `Cc1cccc(-c2cccc(-n3ncc(C(=O)O)c3OC(C)C)n2)c1OCc1ccc2c(c1C)CCN([C@H]1CCCOC1)C2` [Compound 117], in data set [1], the “HLM (% Qh)” value was 25 % Qh. In data set [2], the EC50 turned out to be 0.029 µM.
The like results for `COc1c(C(=O)O)cnn1-c1cccc(-c2cccc(C)c2OCc2cc(C)c3c(c2)CCN(C2CCOCC2)C3)n1` [Compound 171] were, in that order, under 24 % Qh and 0.016 µM.
For `COc1c(C(=O)O)cnn1-c1cccc(-c2cccc(C)c2OCc2cc(C)c3c(c2C)CCN(C2COC2)C3)n1` [Compound 178], the “HLM (% Qh)” value in data set [1] is under 24 % Qh. In data set [2], a half-maximal response (EC50) required 0.014 µM.
Take `CCOc1c(C(=O)O)cnn1-c1cccc(-c2cccc(C)c2OCc2ccc3c(c2C)CCN(C2COC2)CC3)n1` [Compound 175]: in data set [1], the “HLM (% Qh)” value is recorded as 31 % Qh. Further, in data set [2], the EC50 is 0.04 µM.
In the same order, the values of `COc1c(C(=O)O)cnn1-c1cccc(-c2cccc(C)c2OCc2ccc3c(c2C)CCN(C[C@H]2COCCO2)C3)n1` [Compound 142] are under 24 % Qh and 0.062 µM.
As to `COc1c(C(=O)O)cnn1-c1cccc(-c2cccc(C)c2OCc2ccc3c(c2C(F)(F)F)CCN(C2CCOCC2)C3)n1` [Compound 166], the “HLM (% Qh)” value in data set [1] is on record as 27 % Qh. The same compound returned an EC50 in data set [2] of 0.0066 µM.
As to `COc1c(C(=O)O)cnn1-c1cccc(-c2cccc(C)c2OCc2ccc3c(c2C)CCN([C@H]2CCCOC2)C3)n1` [Compound 141], the “HLM (% Qh)” value in data set [1] is reported as under 24 % Qh. In data set [2], this compound had an EC50 of 0.017 µM.
For `COc1c(C(=O)O)cnn1-c1cccc(-c2cccc(C)c2OCc2ccc3c(c2F)CCN(C2COC2)C3)n1` [Compound 177], in data set [1], the “HLM (% Qh)” value is listed as under 24 % Qh. Besides, in data set [2], the EC50 is 0.035 µM.
With `CCCOc1c(C(=O)O)cnn1-c1cccc(-c2cccc(C)c2OCc2ccc3c(c2C)CCN(C2CCOCC2)C3)n1` [Compound 133], the “HLM (% Qh)” value in data set [1] is under 24 % Qh. The compound also returned a 50% effective concentration (EC50) in data set [2] of 0.027 µM.
On to `CC[C@H](C)Oc1c(C(=O)O)cnn1-c1cccc(-c2cccc(C)c2OCc2ccc3c(c2C)CCN(C2CCOC2)C3)n1` (stereo partly shown) [Compound 137], for which the “HLM (% Qh)” value in data set [1] is listed as under 24 % Qh. In data set [2], the EC50 amounted to 0.089 µM.
With `COc1c(C(=O)O)cnn1-c1cccc(-c2cc(C)ccc2OCc2ccc3c(c2C)CCN(C2CCOCC2)C3)n1` [Compound 124], in data set [1], the “HLM (% Qh)” value was under 24 % Qh. In data set [2], this compound displayed an EC50 of 0.047 µM.
`Cc1cccc(-c2cccc(-n3ncc(C(=O)O)c3OC(C)C)n2)c1OCc1ccc2c(c1)CCN([C@H]1CCOC1)C2` [Compound 111]: in data set [1], the “HLM (% Qh)” value was under 24 % Qh. In data set [2], the EC50 turned out to be 0.099 µM.
In the same order, the values of `COc1c(C(=O)O)cnn1-c1cccc(-c2cccc(C)c2OCc2ccc3c(c2)CCCN(C2CCOCC2)C3)n1` [Compound 100] are 31 % Qh and 0.17 µM.
For the compound `COc1c(C(=O)O)cnn1-c1cccc(-c2ccc(C)cc2OCc2ccc3c(c2)CCN(C2CCOCC2)C3)n1` [Compound 98], the “HLM (% Qh)” value in data set [1] was 31 % Qh. The compound further came in with a 50% effective concentration (EC50) in data set [2] of 0.27 µM.
The like results for `CCOc1c(C(=O)O)cnn1-c1cccc(-c2cccc(C)c2OCc2ccc3c(c2C)CCN(C2COC2)C3)n1` [Compound 164] were, in that order, under 24 % Qh and 0.032 µM.
The like results for `CC[C@H](C)Oc1c(C(=O)O)cnn1-c1cccc(-c2cccc(C)c2OCc2ccc3c(c2C)CCN(C2CCOCC2)C3)n1` [Compound 136] were, in that order, under 24 % Qh and 0.081 µM.
In the case of `COc1c(C(=O)O)cnn1-c1cccc(-c2cccc(C)c2OCc2ccc3c(c2)CCN(C2COC2)C3)n1` [Compound 8], in data set [1], the “HLM (% Qh)” value was under 24 % Qh. Moreover, it took 0.042 µM to reach a half-maximal effect in data set [2] (EC50).
Turning to `CCOc1c(C(=O)O)cnn1-c1cccc(-c2cccc(C)c2OCc2ccc3c(c2C(F)(F)F)CCN(C2CCOCC2)C3)n1` [Compound 165], the “HLM (% Qh)” value in data set [1] is reported as under 24 % Qh. In addition, the 50% effective concentration (EC50) in data set [2] was found to be 0.011 µM.
As to `CCOc1c(C(=O)O)cnn1-c1cccc(-c2cccc(C)c2OCc2ccc3c(c2C)CCN(C2CCOCC2)CC3)n1` [Compound 162], the “HLM (% Qh)” value in data set [1] was 26 % Qh. Further, in data set [2], a half-maximal effect (EC50) was put at 0.023 µM.
In the case of `COc1c(C(=O)O)cnn1-c1cccc(-c2cccc(C)c2OCc2ccc3c(c2)CCN(CC(C)(C)C)C3)n1` [Compound 14], the “HLM (% Qh)” value in data set [1] was 31 % Qh. In addition, in data set [2], the EC50 turned out to be 0.018 µM.
In the same order, the values of `CC(C)Oc1c(C(=O)O)cnn1-c1cccc(-c2ccccc2OCc2ccc3c(c2)CCN(C2CCOCC2)C3)n1` [Compound 144] are under 24 % Qh and 0.46 µM.
As for `CCOc1c(C(=O)O)cnn1-c1cccc(-c2cccc(C)c2OCc2ccc3c(c2C)CCN(CC2CCCOC2)C3)n1` (stereo not shown) [Compound 146], the “HLM (% Qh)” value in data set [1] was under 24 % Qh. In data set [2], the EC50 came out at 0.023 µM.
